Results as given in PMC3759666, “Post-translational modification and conformational state of Heat Shock Protein 90 differentially affect binding of chemically diverse small molecule inhibitors” (Oncotarget, 2013).

Columns and labels:
yeast Hsp90 = target: T1, yeast Hsp90 (Saccharomyces cerevisiae, UniProt P02829); assay: DMS cross-linking of N domain dimers; p23 binding by fluorescence anisotropy; type: biochemical
T1 construct: gene HSP82; purified yeast Hsp90

yeast Hsp90 (Hsp82) [1] = target: T2, yeast Hsp90 (Hsp82) (Saccharomyces cerevisiae, UniProt P02829); assay: PU-bead capture from yeast lysate; type: cell-based
T2 construct: wild-type NMC; coilNMC also measured

yeast Hsp90 (Hsp82) [2] = target: T2, yeast Hsp90 (Hsp82); assay: BODIPY-GA anisotropy/displacement; GA-bead capture from yeast lysate; type: binding
Hsp90β = target: T3, Hsp90β (Homo sapiens, UniProt P08238)
T3 construct: gene HSP90AB1
T3 sequence (P08238 2-724): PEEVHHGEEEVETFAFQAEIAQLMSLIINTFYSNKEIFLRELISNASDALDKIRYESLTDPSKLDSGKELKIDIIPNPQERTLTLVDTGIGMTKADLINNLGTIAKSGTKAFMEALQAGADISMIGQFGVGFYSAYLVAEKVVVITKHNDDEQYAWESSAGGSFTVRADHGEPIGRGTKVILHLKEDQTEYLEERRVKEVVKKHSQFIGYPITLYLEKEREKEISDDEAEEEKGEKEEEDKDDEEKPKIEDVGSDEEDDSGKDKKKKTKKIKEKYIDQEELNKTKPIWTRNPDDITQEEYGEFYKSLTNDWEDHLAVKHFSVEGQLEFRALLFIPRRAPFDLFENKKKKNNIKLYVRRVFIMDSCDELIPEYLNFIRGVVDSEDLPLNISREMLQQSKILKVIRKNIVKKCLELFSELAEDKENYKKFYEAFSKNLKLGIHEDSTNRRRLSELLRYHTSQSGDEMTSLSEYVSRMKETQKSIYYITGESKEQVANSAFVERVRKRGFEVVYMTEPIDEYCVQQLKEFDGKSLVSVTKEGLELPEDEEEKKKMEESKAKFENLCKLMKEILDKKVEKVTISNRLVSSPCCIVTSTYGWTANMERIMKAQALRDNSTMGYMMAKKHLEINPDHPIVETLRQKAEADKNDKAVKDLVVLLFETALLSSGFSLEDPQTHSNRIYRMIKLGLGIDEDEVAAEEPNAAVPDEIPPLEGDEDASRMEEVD

T2 sequence (P02829 whole entry): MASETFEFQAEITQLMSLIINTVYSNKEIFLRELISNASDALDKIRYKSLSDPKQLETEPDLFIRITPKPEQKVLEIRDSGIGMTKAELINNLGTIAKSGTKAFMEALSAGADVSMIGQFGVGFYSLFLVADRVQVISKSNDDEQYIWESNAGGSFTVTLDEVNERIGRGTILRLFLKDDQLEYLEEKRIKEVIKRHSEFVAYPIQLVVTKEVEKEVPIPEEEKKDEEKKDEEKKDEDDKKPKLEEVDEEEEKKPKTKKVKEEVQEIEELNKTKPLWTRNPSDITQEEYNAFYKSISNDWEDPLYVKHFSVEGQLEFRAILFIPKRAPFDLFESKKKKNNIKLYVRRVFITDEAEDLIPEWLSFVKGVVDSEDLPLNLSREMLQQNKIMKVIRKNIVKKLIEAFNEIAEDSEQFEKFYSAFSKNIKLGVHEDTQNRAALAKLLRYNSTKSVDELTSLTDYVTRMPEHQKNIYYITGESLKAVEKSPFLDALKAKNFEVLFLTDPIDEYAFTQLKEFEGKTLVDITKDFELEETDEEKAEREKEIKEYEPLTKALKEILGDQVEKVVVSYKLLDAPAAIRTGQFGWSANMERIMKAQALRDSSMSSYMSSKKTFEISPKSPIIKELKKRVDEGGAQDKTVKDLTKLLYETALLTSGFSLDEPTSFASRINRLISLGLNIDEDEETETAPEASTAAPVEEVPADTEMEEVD
T1 sequence (P02829 whole entry): as above

Q: With `Nc1ncnc2c1ncn2[C@@H]1O[C@H](CO[P@](=O)(O)O[P@](=O)(O)NP(=O)(O)O)[C@@H](O)[C@H]1O` [AMP-PNP] as the molecule, how does the “DMS cross-linking of N domain dimers; p23 binding by fluorescence anisotropy” value (yeast Hsp90) read?
A: Only AMP-PNP promoted significant N domain dimerization (Figure 2F).

Q: `CC(C)NCCCn1c(Sc2cc3c(cc2I)OCO3)nc2c(N)ncnc21` [PU, PU-H71] was tested. Which “PU-bead capture from yeast lysate” value (yeast Hsp90 (Hsp82) [1]) did it give?
A: both GA- and PU-beads efficiently isolated coiled-coil Hsp90 from yeast lysates, compared to wild-type Hsp90

Q: For `COC1=C2C[C@@H](C)C[C@H](OC)[C@H](O)[C@@H](C)/C=C(\C)[C@H](OC(N)=O)[C@@H](OC)/C=C\C=C(/C)C(=O)NC(=CC1=O)C2=O` [GA, geldanamycin], which “BODIPY-GA anisotropy/displacement; GA-bead capture from yeast lysate” value (yeast Hsp90 (Hsp82) [2]) is on record?
A: Coiled-coil yeast Hsp90 (coilNMC) has a similar affinity for GA as wild-type Hsp90 (NMC)

Q: And the “GA-agarose capture of Flag-Hsp90β from 293-H cell lysate” value (Hsp90β)?
A: GA-beads bound the non-phosphorylatable mutants (Hsp90α-Y197F and Hsp90β-Y192F) similarly to wild-type Hsp90
